{"source": "patent US9540620B2", "about": "“Methods and compositions for modulating G-alpha-Q signaling” (The University of North Carolina at Chapel Hill, priority 2012, dated 2017)", "molecules": {"B1": {"name": "PLC-β3(L859E): mutant full-length PLC-β3 with single substitution L859E in its HTH that does not bind Gαq (protein)", "chain": "AGAQPGVHALQLEPPTVVETLRRGSKFIKWDEETSSRNLVTLRVDPNGFFLYWTGPNMEVDTLDISSIRDTRTGRYARLPKDPKIREVLGFGGPDARLEEKLMTVVSGPDPVNTVFLNFMAVQDDTAKVWSEELFKLAMNILAQNASRNTFLRKAYTKLKLQVNQDGRIPVKNILKMFSADKKRVETALESCGLKFNRSESIRPDEFSLEIFERFLNKLCLRPDIDKILLEIGAKGKPYLTLEQLMDFINQKQRDPRLNEVLYPPLRPSQARLLIEKYEPNQQFLERDQMSMEGFSRYLGGEENGILPLEALDLSTDMTQPLSAYFINSSHNTYLTAGQLAGTSSVEMYRQALLWGCRCVELDVWKGRPPEEEPFITHGFTMTTEVPLRDVLEAIAETAFKTSPYPVILSFENHVDSAKQQAKMAEYCRSIFGDALLIEPLDKYPLAPGVPLPSPQDLMGRILVKNKKRHRPSAGGPDSAGRKRPLEQSNSALSESSAATEPSSPQLGSPSSDSCPGLSNGEEVGLEKPSLEPQKSLGDEGLNRGPYVLGPADREDEEEDEEEEEQTDPKKPTTDEGTASSEVNATEEMSTLVNYIEPVKFKSFEAARKRNKCFEMSSFVETKAMEQLTKSPMEFVEYNKQQLSRIYPKGTRVDSSNYMPQLFWNVGCQLVALNFQTLDVAMQLNAGVFEYNGRSGYLLKPEFMRRPDKSFDPFTEVIVDGIVANALRVKVISGQFLSDRKVGIYVEVDMFGLPVDTRRKYRTRTSQGNSFNPVWDEEPFDFPKVVLPTLASLRIAAFEEGGKFVGHRILPVSAIRSGYHYVCLRNEANQPLCLPALLIYTEASDYIPDDHQDYAEAEINPIKHVSLMDQRARQLAALIGESEAQAGQETCQDTQSQQLGSQPSSNPTPSPLDASPRRPPGPTTSPASTSLSSPGQRDDLIASILSEVAPTPLDELRGHKALVKLRSRQERDLRELRKKHQRKAVTLTRRLLDGLAQAQAEGRCRLRPGALGGAADVEDTKEGEDEAKRYQEFQNRQVQSLLELREAQVDAEAQRRLEHLRQALQRLREVVLDANTTQFKRLKEMNEREKKELQKILDRKRHNSISEAKMRDKHKKEAELTEINRRHITESVNSIRRLEEAQKQRHDRLVAGQQQVLQQLAEEEPKLLAQLAQECQEQRARLPQEIRRSLLGEMPEGLGDGPLVACASNGHAPGSSGHLSGADSESQEENTQL"}}, "key": {"[1]": {"target": "T1, Gαq activated with aluminum fluoride (Homo sapiens, UniProt P50148)", "T1 sequence (P50148 1-359)": "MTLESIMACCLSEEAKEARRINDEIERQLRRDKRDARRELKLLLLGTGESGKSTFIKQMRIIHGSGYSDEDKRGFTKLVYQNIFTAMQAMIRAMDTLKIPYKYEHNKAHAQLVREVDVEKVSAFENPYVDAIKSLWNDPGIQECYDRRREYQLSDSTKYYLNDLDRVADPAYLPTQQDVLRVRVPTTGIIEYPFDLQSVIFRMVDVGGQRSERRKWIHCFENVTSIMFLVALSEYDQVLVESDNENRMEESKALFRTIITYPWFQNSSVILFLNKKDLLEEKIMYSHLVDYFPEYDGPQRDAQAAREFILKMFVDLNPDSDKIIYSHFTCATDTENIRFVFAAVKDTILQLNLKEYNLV", "assay": "Fluorescence polarization binding of TAMRA-labeled PLC-β3 HTH peptides to Gαq", "conditions": "Gαq-GDP without added aluminum fluoride", "method": "(§1) FIGS. 6A-C. Quantification of Gαq binding to peptides corresponding to the HTH of PLβ3. […] The structures of PLCβ3 (3 OHM) and p63RhoGEF (2RGN) bound to Gαq were superimposed and a single Gαq is shown. Immediately below is shown the sequence alignment of PLCβ3 (SEQ ID NO:37) and p63RhoGEF (SEQ ID NO:41) encompassing the helix-turn-helix. Underlined residues are labeled in the structure. […] (FIG. 6C) Increasing concentrations of unlabeled PLC-β3 were added to a solution of labeled 25-mer (400 nM) and Gαq (4 μM). KD and IC50 values were derived from three independent experiments."}, "activated Gαs": {"target": "activated Gαs (Homo sapiens, UniProt P63092)", "sequence (P63092 whole entry)": "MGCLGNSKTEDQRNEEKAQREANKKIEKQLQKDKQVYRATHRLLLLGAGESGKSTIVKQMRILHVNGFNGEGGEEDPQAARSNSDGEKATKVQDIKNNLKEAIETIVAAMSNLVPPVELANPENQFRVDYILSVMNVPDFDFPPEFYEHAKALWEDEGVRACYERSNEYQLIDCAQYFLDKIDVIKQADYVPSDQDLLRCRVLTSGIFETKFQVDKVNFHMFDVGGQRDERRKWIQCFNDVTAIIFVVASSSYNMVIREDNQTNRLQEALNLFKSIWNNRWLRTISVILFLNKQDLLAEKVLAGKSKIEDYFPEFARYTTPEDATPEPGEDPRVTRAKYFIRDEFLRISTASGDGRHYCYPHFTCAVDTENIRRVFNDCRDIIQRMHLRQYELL", "assay": "Fluorescence polarization binding of TAMRA-labeled peptide to activated Gαs"}, "activated Gαo": {"target": "activated Gαo (Homo sapiens, UniProt P09471)", "sequence (P09471 whole entry)": "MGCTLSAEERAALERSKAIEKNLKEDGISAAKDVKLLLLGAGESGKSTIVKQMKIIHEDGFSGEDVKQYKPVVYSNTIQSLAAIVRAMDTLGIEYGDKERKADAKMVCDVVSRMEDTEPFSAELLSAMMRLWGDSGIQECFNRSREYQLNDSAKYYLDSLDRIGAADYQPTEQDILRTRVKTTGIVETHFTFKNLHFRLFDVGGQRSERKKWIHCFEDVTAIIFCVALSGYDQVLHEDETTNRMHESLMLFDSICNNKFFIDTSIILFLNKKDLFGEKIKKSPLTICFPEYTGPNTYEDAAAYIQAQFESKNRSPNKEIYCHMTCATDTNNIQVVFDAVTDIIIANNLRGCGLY", "assay": "Fluorescence polarization binding of TAMRA-labeled peptide to activated Gαo"}, "activated GαI": {"tested_on": "activated GαI", "assay": "Fluorescence polarization binding of TAMRA-labeled peptide to activated Gαi"}, "[2]": {"tested_on": "G-alpha-q mediated activation of PLC-beta", "assay": "5HT2A/DOI-stimulated [3H]inositol phosphate accumulation in transiently transfected HEK293 cells", "type": "cell-based", "conditions": "DOI 1-2 microMolar (FIG. 10)", "method": "FIG. 10. […] HEK293 cells transfected with 100 ng of 5HT2A and stimulated with 1-2 microMolar of DOI (Synonym: (±)-DOI, (±)-1-(2,5-Dimethoxy-4-iodophenyl)-2-aminopropane hydrochloride, (±)-2,5-Dimethoxy-4-iodoamphetamine hydrochloride) were assayed for [^3H]inositol phosphate accumulation. The control for no DOI stimulation for the CFP-HTH-YFP sample is shown as dashed line (A) and triangle (B). Where indicated HEK293 cells were transfected with varying amounts of PLC constructs.\nThis experiment is a proof of principle to inhibit G-alpha-q with adeno-associated virus (AAV) to treat uveal melanoma patients. Future experiments will use a retrovirus containing the 27 residue helix-turn-helix in primary uveal melanoma cells to induce apoptosis and inhibit the progression of the uveal melanoma.\nThe 27mer construct used is between two fluorescent proteins YFP and CFP yielding: YFP-HTH(27mer)-CFP. The 27mer sequence is\nA CaaX box was attached to the YFP-HTH(27mer)-CFP to keep this molecule at the membrane. The CaaX box sequence is at the very C-terminal end and are the residues CAIL (SEQ ID NO:36)."}, "Gαq/i": {"tested_on": "Gαq/i", "assay": "Fluorescence polarization assay in 384 well plates, competition with TAMRA-27-mer", "type": "binding", "conditions": "30 μM, 200 nM TAMRA-27-mer, 1.5 μM Gαq/i", "method": "FIG. 4. Fluorescence polarization assay in 384 well plates. Each well contains 200 nM TAMRA-27-mer and 1.5 μM Gαq/i. Z′-factor determined using 48 wells+/−aluminum fluoride (AlF4). Unlabeled 27-mer (30 μM) added to an additional 48 wells. Coefficient of variance range between 1 and 4 percent.\nTo begin to develop a high-throughput format suitable for screening large libraries of compounds, the original fluorescence polarization assay was formatted to use microtiter plates (FIG. 4). The initial reconfiguration to use 384-well plates is highly promising, providing a high dynamic range as defined by the difference in fluorescence polarization of the TAMRA-27-mer in the presence of Gαq-GDP either alone or activated with aluminum fluoride. The high dynamic range combined with low variance produced a Z′-factor of approximately 0.8. An assay with a Z′-factor above 0.5 is generally required for useful high-throughput screening^19; a Z′-factor above 0.8 is generally considered excellent. Moreover, the addition of 30 μM of unlabeled 27-mer competed with the TAMRA-27-mer for binding to Gαq leading to an approximately 50 percent decrease in fluorescence polarization."}, "Gαq": {"target": "T2, Gαq (Homo sapiens, UniProt P50148)", "T2 sequence (P50148 1-359)": "T1 sequence (P50148 1-359)", "assay": "Fluorescence polarization competition: unlabeled PLC-β3 against TAMRA-labeled peptide for Gαq", "type": "binding", "method": "FIGS. 3A and 3B. TAMRA-27-mer and PLC-β3 directly compete for Gαq. (FIG. 3A) Increasing concentrations of PLC-β3 were added to a solution of TAMRA-27-mer (400 nM) and Gαq (800 nM). The IC50 value is derived from three independent experiments. (FIG. 3B) Phospholipase activity of PLC-β3 activated by Gαq using lipid vesicles and inhibited by increasing concentrations of TAMRA-27-mer.\nas §1\nFluorescence polarization will be used to monitor disruption of complex formation between the 27-mer and active Gαq to identify compounds that directly compete with the complex. It is expected that the majority of these compounds will sit within the canonical effector-binding site of Gαq to prevent the binding of peptide—and by extension, prevent the binding of effectors. However, before using this assay format to identify inhibitors of complex formation it was necessary to insure that peptides corresponding to the HTH of PLC-β3 bound to Gαq. […] These experiments strongly support that peptides corresponding to the HTH of PLC-β3 directly bind to the effector pocket of Gαq and can be used as surrogates of effectors in assays of complex formation with active Gαq.\nThe most promising peptide consisted of 25 residues (TAMRA-25-mer) spanning the entire HTH and bound to G-alpha-q with appreciable affinity (Kd˜6 microMolar)."}}, "note": "“Also recorded” adds a separate entry of the source. Ends that are not written are not given here. Peptide text beside a SMILES is read from it. * marks the point of attachment. X1 = CN(C)c1ccc2c(-c3ccc(C(=O)*)cc3C(=O)[O-])c3ccc(=[N+](C)C)cc-3oc2c1", "data": [{"molecule": "CC[C@H](C)[C@H](NC(=O)[C@H](CC(C)C)NC(=O)[C@H](C)NC(=O)[C@H](CCC(=O)O)NC(=O)[C@H](C)NC(=O)[C@H](Cc1ccc(O)cc1)NC(=O)[C@H](CC(=O)O)NC(=O)[C@H](CCC(N)=O)NC(=O)[C@H](Cc1c[nH]cn1)NC(=O)c1ccc(-c2c3ccc(=[N+](C)C)cc-3oc3cc(N(C)C)ccc23)c(C(=O)[O-])c1)C(=O)N[C@@H](CC(N)=O)C(=O)N1CCC[C@H]1C(=O)N[C@H](C(=O)N[C@@H](CCCCN)C(=O)N[C@@H](Cc1c[nH]cn1)C(=O)N[C@H](C(=O)N[C@@H](CO)C(=O)N[C@@H](CC(C)C)C(=O)N[C@@H](CCSC)C(=O)N[C@@H](CC(=O)O)C(=O)N[C@@H](CCC(N)=O)C(=O)N[C@@H](CCCNC(=N)N)C(=O)N[C@@H](C)C(=O)N[C@@H](CCCNC(=N)N)C(=O)N[C@@H](CCC(N)=O)C(=O)N[C@@H](CC(C)C)C(=O)O)C(C)C)[C@@H](C)CC", "note": "[TAMRA-25-mer] (X1-HQDYAEALINPIKHVSLMDQRARQL-OH; C-terminus assumed)", "values": [{"measurement": "complex formation with inactive Gαq-GDP / dependence on aluminum fluoride activation", "setting": "[1]", "value": "dependent on the activation of G-alpha-q with aluminum fluoride; also recorded: dependent on the activation of Gαq with aluminum fluoride"}, {"measurement": "binding to activated Gαs", "setting": "activated Gαs", "value": "failed to bind; also recorded: neither activated Gαs, GαI, nor Gαo bound the peptide"}, {"measurement": "binding to activated Gαo", "setting": "activated Gαo", "value": "failed to bind; also recorded: neither activated Gαs, GαI, nor Gαo bound the peptide"}, {"measurement": "binding to activated Gαi", "setting": "activated GαI", "value": "failed to bind; also recorded: neither activated Gαs, GαI, nor Gαo bound the peptide"}]}, {"molecule": "CFP-27mer(I860A)-YFP: 27mer HQDYAEALANPIKHVSLMDQRARQLAA between fluorescent proteins YFP and CFP, C-terminal CaaX box CAIL, expressed by transient transfection (HQDYAEALANPIKHVSLMDQRARQLAACAIL; also: fused between fluorescent proteins YFP and CFP)", "values": [{"measurement": "inhibition of G-alpha-q signaling after transient transfection", "setting": "[2]", "value": "inhibits G-alpha-q mediated activation of PLC-beta"}, {"measurement": "inhibition of G-alpha-q signaling after transient transfection", "setting": "[2]; listed as 27 residue helix-turn-helix peptide", "value": "inhibited G-alpha-q signaling"}]}, {"molecule": "HQDYAEALANPIKHVSL-Nle-DQRARQLAA [unlabeled 27-mer]", "values": [{"measurement": "decrease in fluorescence polarization", "setting": "Gαq/i", "value": "approximately 50%"}]}, {"molecule": "B1", "values": [{"measurement": "competition with the 27-mer for binding to Gαq", "setting": "Gαq; TAMRA-27-mer 400 nM, Gαq 800 nM", "value": "could not compete"}, {"measurement": "effect on TAMRA-25-mer binding to Gαq", "setting": "Gαq; at concentrations as high as 35 μM", "value": "no effect"}]}]}
